Source: paper PMC12649225, “Machine Learning-Identified Potent Antimicrobial Peptides Against Multidrug-Resistant Bacteria and Skin Infections” (Antibiotics, 2025)
Residues, ends and D or L forms follow the SMILES beside them.

Assays:
A. baumannii RUH875 [1] = format: cell-based
Protocol: (§1) The bacterial strains used in this study included S. aureus JAR060131 [54] and the MDR ESKAPE pathogens Enterococcus faecium LUH15122, S. aureus LUH14616, Klebsiella pneumoniae LUH15104, A. baumannii RUH875 [55], Pseudomonas aeruginosa LUH15103, Enterobacter cloacae LUH15114, and the colistin-resistant Escherichia coli LUH15117. Before each experiment, bacteria from frozen stocks were cultured at 37 °C for 18–24 h on sheep blood agar plates (BioMérieux, Marcy-l’Étoile, France). All strains were then cultured from colonies either in tryptic soy broth (TSB; Oxoid, Basingstoke, UK) for A. baumannii, S. aureus, and E. faecium, or in brain heart infusion broth (BHI; Oxoid) for K. pneumoniae, P. aeruginosa, E. cloacae, and E. coli at 37 °C with shaking at 120 rpm for 18–24 h. Subsequently, bacteria were cultured to mid-logarithmic phase in the media described above at 37 °C with shaking at 120 rpm for 3 h. Bacteria were then washed twice with PBS and diluted to the required inoculum suspension concentration in Roswell Park Memorial Institute (RPMI)-1640 medium containing 20 mM HEPES and L-glutamine but without sodium bicarbonate (Sigma-Aldrich; hereafter referred to as RPMI), based on optical density at 620 nm. RPMI was selected because it supports bacterial growth without impairing AMP activity.
(§2) Bactericidal activity was assessed as described by de Breij et al.. Briefly, mid-logarithmic phase bacterial cultures were diluted to a final concentration of 1 × 10^7 colony-forming units (CFU)/mL in RPMI. Then, 10 µL was added to a final volume of 100 µL in RPMI (final concentration: 1 × 10^6 CFU/mL). Cultures were exposed to peptides either in RPMI or RPMI supplemented with 50% (v/v) human plasma (hereafter referred to as 50% plasma), obtained from four healthy volunteers after informed consent, frozen after collection, and pooled (Sanquin, Amsterdam, The Netherlands). Assays were performed in duplicate using round-bottom polypropylene microtiter plates (Costar, Arlington, VA, USA) and repeated three times. In the initial screening phase (Table 1, Table 2 and Table S1), peptide solutions of 1, 10, and 100 μM (final concentration) were tested against A. baumannii RUH875 and S. aureus JAR060131 in RPMI and in 50% plasma. After this selection process, two lead candidates, their RI variants, and reference peptides were tested with a final concentration range of 0.12 to 120 µM (two-fold dilutions) in RPMI and in 50% plasma (Table 3). The peptides were also tested against ESKAPE pathogens, with Synthetic Antimicrobial and Antibiofilm Peptide (SAAP)-148 as a reference peptide (Table 4).RPMI or 50% plasma served as no-treatment controls. After 2 and 18 h of incubation at 37 °C with shaking at 120 rpm in a humidified environment, the numbers of viable bacteria were quantified. Bactericidal activity was expressed as the lethal concentration 99.9% (LC99.9), defined as the lowest peptide concentration that killed ≥99.9% of bacteria within 2 h (LC99.9_2h) or 18 h (LC99.9_18h) compared to the initial inoculum.

E. cloacae LUH15114 = format: cell-based
Protocol: as §1, §2

E. coli LUH15117 = format: cell-based
Protocol: as §1, §2

E. faecium LUH15122 = format: cell-based
Protocol: as §1, §2

K. pneumoniae LUH15104 = format: cell-based
Protocol: as §1, §2

P. aeruginosa LUH15103 = format: cell-based
Protocol: as §1, §2

S. aureus JAR060131 [2] = format: cell-based
Protocol: as §1, §2

S. aureus LUH14616 = format: cell-based
Protocol: as §1, §2

MDR ESKAPE pathogens = assay: Bactericidal activity (LC99.9), statements for the whole panel; format: cell-based; conditions: range over species
Protocol: as §1, §2

A. baumannii RUH875 [3] = conditions: 3.75 μM
Protocol: (§3) Bacteria incubated in PBS alone served as no-treatment controls. At five time points (1, 2, 5, 30, and 120 min), duplicate 50 µL samples were taken and immediately mixed with 50 µL of 0.05% (v/v) sodium polyanethol sulfonate (SPS; Sigma-Aldrich) in PBS to neutralize residual peptide activity. The number of viable bacteria was quantified by plating 10 µL aliquots of serial 10-fold dilutions onto sheep blood agar plates. Colonies were counted after 24 h of incubation at 37 °C.

S. aureus JAR060131 [4] = conditions: 3.75 μM
Protocol: as §3

S. aureus JAR060131 [5] = assay: SYTOX Green membrane permeabilization assay; format: cell-based, Staphylococcus aureus; conditions: RPMI, 1 μM SYTOX Green; 90 min; 37 °C
Protocol: Control samples were exposed to RPMI only. As a positive control, heat-killed bacteria were incubated at 95 °C for 10 min to induce maximum membrane permeabilization. Fluorescence (excitation: 485 nm, emission: 520 nm) was monitored every minute for 90 min at 37 °C using a […] plate reader (Ortenberg, Germany), with peptides and positive controls added after the third cycle. Background fluorescence (SYTOX Green alone) was subtracted from all values. All assays were performed in triplicate and repeated twice independently.

Structure (SMILES): CC[C@@H](C)[C@@H](NC(=O)[C@@H](CC(C)C)NC(=O)[C@@H](CCCCN)NC(=O)[C@@H](CCCCN)NC(=O)[C@H](NC(=O)[C@@H](Cc1c[nH]c2ccccc12)NC(=O)[C@@H](CCCNC(=N)N)NC(=O)[C@@H](Cc1ccccc1)NC(=O)[C@@H](CC(C)C)NC(C)=O)C(C)C)C(=O)N[C@H](CCCCN)C(=O)N[C@@H](C(=O)N[C@H](Cc1c[nH]c2ccccc12)C(=O)N[C@H](CCCNC(=N)N)C(=O)N[C@H](CCCCN)C(N)=O)C(C)C [GDST-045-RI] (HELM PEPTIDE1{[ac].[dL].[dF].[dR].[dW].[dV].[dK].[dK].[dL].[dI].[dK].[dV].[dW].[dR].[dK].[am]}$$$$V2.0; N-terminus and C-terminus assumed)
- LC99.9 A. baumannii RUH875 50% Plasma 2 h (A. baumannii RUH875 [1]; RUH875, 2 h): 1.88 µM
- LC99.9 A. baumannii RUH875 50% Plasma 18 h (A. baumannii RUH875 [1]; RUH875, 18 h): 0.94 µM
- LC99.9 E. cloacae LUH15114 50% Plasma 2 h (E. cloacae LUH15114; LUH15114, 2 h): 120 µM
- LC99.9 E. cloacae LUH15114 RPMI 2 h (E. cloacae LUH15114; LUH15114, 2 h): 15 µM
- LC99.9 E. cloacae LUH15114 50% Plasma 18 h (E. cloacae LUH15114; LUH15114, 18 h): 30 µM
- LC99.9 E. cloacae LUH15114 RPMI 18 h (E. cloacae LUH15114; LUH15114, 18 h): 3.75 µM
- LC99.9 E. coli LUH15117 RPMI 2 h (E. coli LUH15117; LUH15117, 2 h): 3.75 µM
- LC99.9 E. coli LUH15117 RPMI 18 h (E. coli LUH15117; LUH15117, 18 h): 1.88 µM
- LC99.9 E. faecium LUH15122 50% Plasma 2 h (E. faecium LUH15122; LUH15122, 2 h): 1.88 µM
- LC99.9 E. faecium LUH15122 RPMI 2 h (E. faecium LUH15122; LUH15122, 2 h): 0.94 µM
- LC99.9 E. faecium LUH15122 50% Plasma 18 h (E. faecium LUH15122; LUH15122, 18 h): 3.75 µM
- LC99.9 E. faecium LUH15122 RPMI 18 h (E. faecium LUH15122; LUH15122, 18 h): 0.94 µM
- LC99.9 K. pneumoniae LUH15104 50% Plasma 2 h (K. pneumoniae LUH15104; LUH15104, 2 h): 15 µM
- LC99.9 K. pneumoniae LUH15104 RPMI 2 h (K. pneumoniae LUH15104; LUH15104, 2 h): 15 µM
- LC99.9 K. pneumoniae LUH15104 50% Plasma 18 h (K. pneumoniae LUH15104; LUH15104, 18 h): 7.5 µM
- LC99.9 K. pneumoniae LUH15104 RPMI 18 h (K. pneumoniae LUH15104; LUH15104, 18 h): 7.5 µM
- LC99.9 P. aeruginosa LUH15103 50% Plasma 2 h (P. aeruginosa LUH15103; LUH15103, 2 h): 30 µM
- LC99.9 P. aeruginosa LUH15103 RPMI 2 h (P. aeruginosa LUH15103; LUH15103, 2 h): 3.75 µM
- LC99.9 P. aeruginosa LUH15103 50% Plasma 18 h (P. aeruginosa LUH15103; LUH15103, 18 h): 30 µM
- LC99.9 P. aeruginosa LUH15103 RPMI 18 h (P. aeruginosa LUH15103; LUH15103, 18 h): 3.75 µM
- LC99.9 S. aureus JAR060131 50% Plasma 2 h (S. aureus JAR060131 [2]; JAR060131, 2 h): 3.75 µM
- LC99.9 S. aureus JAR060131 RPMI 2 h (S. aureus JAR060131 [2]; JAR060131, 2 h): 1.88 µM
- LC99.9 S. aureus JAR060131 50% Plasma 18 h (S. aureus JAR060131 [2]; JAR060131, 18 h): 1.88 µM
- LC99.9 S. aureus LUH14616 50% Plasma 2 h (S. aureus LUH14616; LUH14616, 2 h): 15 µM
- LC99.9 S. aureus LUH14616 RPMI 2 h (S. aureus LUH14616; LUH14616, 2 h): 0.94 µM
- LC99.9 S. aureus LUH14616 50% Plasma 18 h (S. aureus LUH14616; LUH14616, 18 h): 1.88 µM
- LC99.9 S. aureus LUH14616 RPMI 18 h (S. aureus LUH14616; LUH14616, 18 h): 0.94 µM
- Concentrations killing ESKAPE pathogens in 50% plasma within 2 h (MDR ESKAPE pathogens; 50% plasma, 2 h): 0.94 to 120 µM
- Concentrations killing ESKAPE pathogens in 50% plasma after 18 h (MDR ESKAPE pathogens; 50% plasma, 18 h): 0.94 to 30 µM
- Concentrations killing ESKAPE pathogens in RPMI within 2 h (MDR ESKAPE pathogens; RPMI, 2 h): 0.94 to 15 µM
- Time to complete killing of A. baumannii (A. baumannii RUH875 [3]): ≤ 120 min
- Time to complete killing of S. aureus (S. aureus JAR060131 [4]): ≤ 30 min
- Concentrations causing rapid rise in SYTOX fluorescence, S. aureus (S. aureus JAR060131 [5]): 1.88 to 3.75 µM
